The values that follow come from PubChem BioAssay (NCI).

The structures appear in SMILES notation. Values joined by “and” are separate entries in the source; they are usually repeats but may differ in a detail not shown here. Equal values may be shown once.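 Where inhibition never reached the appropriate level, the endpoint shown equals the highest concentration tested. Otherwise, values were interpolated linearly from a five-concentration, 48-hour dose response in 96-well plates. GI50 is the concentration that inhibits growth by half. TGI denotes the concentration required for complete inhibition of growth.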

Holding throughout (assay): inhibition of tumour cell growth, NCI panel, 48 h
Experiment [1] has as its system SK-MEL-2 melanoma.
For experiment [2], the system named is SK-OV-3 ovarian.
The test system of experiment [3] is A498 renal.
In experiment [4] the test system is DU-145 prostate.
The subject of experiment [5] is MOLT-4 leukemia.
Experiment [6] relates to OVCAR-4 ovarian.
For experiment [7], the system named is NCI-H23 lung.
The subject of experiment [8] is MDA-MB-435.
Experiment [9] deals with UO-31 renal.
Experiment [10] deals with SK-MEL-5 melanoma.

For the compound `COc1cccc2c1C(=O)c1c(O)c3c(c(O)c1C2=O)C[C@@](O)(C(=O)CO)C[C@@H]3O[C@H]1C[C@H](N)[C@@H](O)[C@H](C)O1`, the GI50 in experiment [1] was 0.514 µM; in experiment [2] it was 0.318 µM; in experiment [3] it was 0.134 µM; in experiment [4], 0.159 µM; in experiment [5] it was 0.0326 µM; in [6] it was 0.546 µM. In addition, the GI50 in experiment [7] was 0.122 µM; in experiment [8], 0.465 µM; in experiment [9] it was 0.866 µM. Also, the TGI in experiment [1] came out at 3.09 µM; in experiment [2] it was 31.6 µM; in experiment [3], 1.06 µM; in experiment [4] it was 5.8 µM; in experiment [5], 0.285 µM; in experiment [6], 5.87 µM. The TGI in experiment [7] was 0.953 µM; in [8] it was 1.29 µM; in experiment [9], 5.89 µM; in [10] it was 0.623 µM.
Take `CCN(CC)CCn1c2ccccc2c(=O)c2c(O)ccc(O)c21`: the TGI is 50.4 µM in [1]; above 81 µM in experiment [2]; above 100 µM in [3]; above 100 µM in experiment [4]; 69.3 µM in [5]; 34.5 µM in experiment [6]. In addition, the TGI in [7] was 62.2 µM; in [8], 33.4 µM; in experiment [9] it was 63.8 µM; in [10], 45.5 µM.
With `COc1cc(/C=N/NC(=O)c2cnn3c2NC(c2ccccc2)C3)ccc1Oc1ccccc1` (stereo not drawn), the GI50 is 1.14 µM in experiment [1]; 1.47 µM in [2]; 1.18 µM in experiment [3]; 1.42 µM in experiment [4]; 1.99 µM in [5]; 1.41 µM in [6]. The GI50 in [7] is 1.63 µM; in experiment [8], 0.293 µM; in experiment [9] it was 1.69 µM; in experiment [10], 0.734 µM. Further, the TGI came out at 4.89 µM in [1]; 10.6 µM in [2]; 7.03 µM in [3]; 4.84 µM in experiment [4]; 20.4 µM in [5]; 3.78 µM in experiment [6]. Further, the TGI in [7] is 10.8 µM; in [8] it was 1.43 µM; in experiment [9], 12.2 µM; in [10] it was 3.94 µM.
For the compound `Cc1ccc2nc(-c3ccccc3)c(N=O)n2c1`, the TGI in experiment [1], in experiment [2], in experiment [3], in [4], in experiment [5] and in experiment [6] was above 100 µM throughout. For the same compound, the TGI in [7], in experiment [8], in [9] and in [10] was above 100 µM throughout.
As to `CCN1C(=O)N(c2ccccc2)C2NC(=S)N(/N=C/C=C/c3ccccc3)C21` (stereo not drawn), the GI50 in experiment [1] is 0.345 µM; in experiment [2] it was 0.421 µM; in [3], 0.105 µM; in experiment [4] it was 0.444 µM; in experiment [5] it was 0.38 µM; in experiment [6], 4.68 µM. In addition, the GI50 in experiment [7] was 0.569 µM; in [8] it was 0.0314 µM; in experiment [9] it was 0.499 µM; in [10], 0.463 µM. Besides, the TGI in experiment [1] was above 94.2 µM; in experiment [2], above 100 µM; in experiment [3] it was 0.699 µM; in experiment [4] it was above 100 µM; in experiment [5] it was above 100 µM; in [6], above 100 µM. For the same compound, the TGI was above 100 µM in [7], 0.216 µM in experiment [8], above 100 µM in [9] and above 100 µM in [10].
For the compound `COc1cccc(OCCCN)c1-c1cc(Nc2cnc(C#N)cn2)n[nH]1`, the GI50 is 0.00476 µM in [1]; 0.00474 µM in experiment [2]; 0.00476 µM in experiment [3]; 0.00769 µM and 0.0131 µM in experiment [4]; 0.00391 µM in experiment [5]; 0.00793 µM and < 0.0249 µM in experiment [6]. The GI50 in experiment [7] is 0.00479 µM and < 0.0109 µM; in [8], 0.00423 µM; in [9], 0.0279 µM and 0.0321 µM; in [10], 0.0318 µM and 0.0224 µM. The TGI in experiment [1] is 0.0644 µM; in experiment [2] it was 7.02 µM; in [3], 0.23 µM and < 0.0269 µM; in experiment [4], 15.4 µM; in [5], 5.69 µM; in [6] it was 14.9 µM. In addition, the TGI amounted to 8.88 µM in experiment [7], 1.23 µM in experiment [8] and 1.59 µM in [10].
Take `COc1ccc(-n2cc(-c3cc(OC)c(OC)c(OC)c3)nc2SCc2ccccc2)cc1OC`: the GI50 in experiment [1] was above 100 µM; in experiment [2] it was above 100 µM; in experiment [3], above 100 µM; in experiment [4], above 100 µM; in [5], 24.6 µM; in experiment [6] it was above 81.4 µM. Also, the GI50 in experiment [7] is above 100 µM; in [8], above 100 µM; in [9] it was 17.7 µM; in [10] it was 15.6 µM. Further, the TGI in experiment [1], in experiment [2], in experiment [3], in experiment [4], in experiment [5] and in experiment [6] was above 100 µM each time. The TGI in experiment [7], in [8], in experiment [9] and in experiment [10] was above 100 µM each time.
As for `Cc1cc2[nH]c(=O)c3c4ccccc4cn3c2cc1C`, the GI50 in experiment [1] was 18.1 µM; in [2], 18.4 µM; in [3], 21.5 µM; in [4] it was 13.9 µM; in [5], 5.68 µM; in experiment [6], 13.5 µM. Further, the GI50 in experiment [7] was 14.9 µM; in experiment [8], 6 µM; in experiment [9] it was 14.6 µM; in [10], 13.6 µM. Moreover, the TGI in experiment [1] worked out at 34.8 µM; in [2], 34.5 µM; in [3], 39.6 µM; in experiment [4], 30.1 µM; in experiment [5], 19.4 µM; in experiment [6] it was 27.6 µM. For the same compound, the TGI was found to be 32.2 µM in experiment [7], 19.8 µM in experiment [8], 28 µM in [9] and 29.6 µM in experiment [10].
